Structures are written as SMILES.

Broadly, the MIC is the least concentration at which growth counts as inhibited.

For data set [1], the system named is Staphylococcus aureus. Description: Antibacterial activity against methicillin resistant Staphylococcus aureus ATCC48966 assessed as reduction in microbial growth after 16 to 18 hrs by microbroth dilution method. Type of data set: functional. Particulars: time 16-18 hrs. On the technique in general: Dilution methods test growth across graded concentrations, often in twofold steps.

In data set [2] the test system is Staphylococcus aureus. Kind of data set: Antibacterial activity against methicillin resistant Staphylococcus aureus ATCC 43300 assessed as reduction in microbial growth after 16 to 18 hrs by microbroth dilution method. To be noted: time 16-18 hrs. The data set is classed as functional.
The test system of the next data set is RAW264.7. Description: Cytotoxicity against mouse RAW264.7 cells assessed as cell viability at 10 ug/ml measured after 24 hrs by MTT assay. The data set is classed as cell-based. To be noted: raw264.7, 24 h, dose 10 µg/ml.
In data set [3] the test system is Staphylococcus aureus. Description: Antibacterial activity against methicillin resistant Staphylococcus aureus ATCC48073 assessed as reduction in microbial growth after 16 to 18 hrs by microbroth dilution method. The data set is classed as functional. Particulars: time 16-18 hrs.
Data set [4] concerns Staphylococcus aureus. Description: Antibacterial activity against methicillin resistant Staphylococcus aureus ATCC515992 assessed as reduction in microbial growth after 16 to 18 hrs by microbroth dilution method. The data set is classed as functional. Particulars: time 16-18 hrs.
For data set [5], the system named is Staphylococcus aureus. Kind of data set: Antibacterial activity against methicillin resistant Staphylococcus aureus ATCC 62202 assessed as reduction in microbial growth after 16 to 18 hrs by microbroth dilution method. To be noted: time 16-18 hrs. The data set is classed as functional.
Data set [6] relates to Staphylococcus aureus. Kind of data set: Antibacterial activity against methicillin resistant Staphylococcus aureus ATCC49008 assessed as reduction in microbial growth after 16 to 18 hrs by microbroth dilution method. Type of data set: functional. Particulars: time 16-18 hrs.
A further data set concerns Enterococcus faecalis. Description: Antibacterial activity against Enterococcus faecalis ATCC29212 assessed as reduction in microbial growth after 16 to 18 hrs by microbroth dilution method. Type of data set: functional. Particulars: ATCC 29212, time 16-18 hrs.
The next data set deals with L02. Kind of data set: Cytotoxicity against human L02 cells assessed as cell viability at 10 ug/ml measured after 24 hrs by MTT assay. The data set is classed as cell-based. To be noted: l02, 24 h, dose 10 µg/ml. For orientation: Formazan colour is commonly taken as a measure of viable cells.
The test system of the next data set is Escherichia coli. Kind of data set: Antibacterial activity against Escherichia coli ATCC25922 assessed as reduction in microbial growth after 16 to 18 hrs by microbroth dilution method. Type of data set: functional. To be noted: ATCC 25922, time 16-18 hrs.
Data set [7] concerns Staphylococcus aureus. Description: Antibacterial activity against methicillin resistant Staphylococcus aureus ATCC513045 assessed as reduction in microbial growth after 16 to 18 hrs by microbroth dilution method. Type of data set: functional. To be noted: time 16-18 hrs.
Data set [8] relates to Staphylococcus aureus. Kind of data set: Antibacterial activity against methicillin resistant Staphylococcus aureus ATCC 52056 assessed as reduction in microbial growth after 16 to 18 hrs by microbroth dilution method. Particulars: time 16-18 hrs. The data set is classed as functional.
In a further data set the test system is Pseudomonas aeruginosa. Kind of data set: Antibacterial activity against Pseudomonas aeruginosa ATCC27853 assessed as reduction in microbial growth after 16 to 18 hrs by microbroth dilution method. The data set is classed as functional. To be noted: time 16-18 hrs.
For data set [9], the system named is Staphylococcus aureus. Description: Antibacterial activity against methicillin resistant Staphylococcus aureus ATCC49025 assessed as reduction in microbial growth after 16 to 18 hrs by microbroth dilution method. Type of data set: functional. To be noted: time 16-18 hrs.
The subject of data set [10] is Staphylococcus aureus. Description: Antibacterial activity against methicillin resistant Staphylococcus aureus ATCC48706 assessed as reduction in microbial growth after 16 to 18 hrs by microbroth dilution method. The data set is classed as functional. Particulars: time 16-18 hrs.
For data set [11], the system named is Staphylococcus aureus. Description: Antibacterial activity against Staphylococcus aureus ATCC 25923 assessed as reduction in microbial growth after 16 to 18 hrs by microbroth dilution method. The data set is classed as functional. Particulars: time 16-18 hrs.
Data set [12] has as its system Staphylococcus aureus. Description: Antibacterial activity against methicillin resistant Staphylococcus aureus ATCC49800 assessed as reduction in microbial growth after 16 to 18 hrs by microbroth dilution method. To be noted: time 16-18 hrs. The data set is classed as functional.

As for `CC(C)=CCc1c(OCC(F)(F)F)cc(/C=C/c2ccc(F)cc2)c(C(=O)O)c1O`, the minimum inhibitory concentration (MIC) stood at 4 µg/mL in the data set with Staphylococcus aureus [1]; 2 µg/mL with Staphylococcus aureus [2]; 4 µg/mL with Staphylococcus aureus [3]; 4 µg/mL with Staphylococcus aureus [4]; 4 µg/mL in the data set on Staphylococcus aureus [5]; 4 µg/mL with Staphylococcus aureus [6]. Moreover, the MIC is greater than 32 µg/mL in the data set on Enterococcus faecalis; greater than 32 µg/mL in the data set on Escherichia coli; 4 µg/mL with Staphylococcus aureus [7]; 2 µg/mL with Staphylococcus aureus [8]; greater than 32 µg/mL in the data set on Pseudomonas aeruginosa; 4 µg/mL in the data set on Staphylococcus aureus [9]. The minimum inhibitory concentration (MIC) with Staphylococcus aureus [10], in the data set with Staphylococcus aureus [11] and in the data set on Staphylococcus aureus [12] was 4 µg/mL in each case. Besides, the Activity entry with RAW264.7 and in the data set on L02 was “Toxic” throughout.

With `CC(C)=CCc1c(OC2CCCCC2)cc(/C=C/c2ccc(F)cc2)c(C(=O)O)c1O`, the MIC in the data set on Staphylococcus aureus [1] came out at 4 µg/mL; in the data set on Staphylococcus aureus [2], 2 µg/mL; in the data set on Staphylococcus aureus [3], 4 µg/mL; with Staphylococcus aureus [4], 4 µg/mL; with Staphylococcus aureus [5] it was 2 µg/mL; with Staphylococcus aureus [6], 4 µg/mL. Also, the MIC in the data set with Enterococcus faecalis is greater than 32 µg/mL; with Escherichia coli it was greater than 32 µg/mL; in the data set with Staphylococcus aureus [7] it was 2 µg/mL; with Staphylococcus aureus [8], 2 µg/mL; in the data set with Pseudomonas aeruginosa, greater than 32 µg/mL; in the data set on Staphylococcus aureus [9], 4 µg/mL. For the same compound, the minimum inhibitory concentration (MIC) was determined as 4 µg/mL in the data set with Staphylococcus aureus [10], 2 µg/mL with Staphylococcus aureus [11] and 4 µg/mL in the data set with Staphylococcus aureus [12]. In addition, the Activity result in the data set with RAW264.7 and in the data set with L02 was “Toxic” each time.

As for `CC(C)=CCc1c(OC(C)C)cc(/C=C/c2ccc(C(F)(F)F)cc2)c(C(=O)O)c1O`, the MIC in the data set on Staphylococcus aureus [1] was found to be 2 µg/mL; in the data set with Staphylococcus aureus [2], 1 µg/mL; in the data set on Staphylococcus aureus [3], 2 µg/mL; with Staphylococcus aureus [4], 2 µg/mL; in the data set on Staphylococcus aureus [5], 2 µg/mL; in the data set with Staphylococcus aureus [6], 2 µg/mL. Besides, the MIC was greater than 32 µg/mL in the data set on Enterococcus faecalis; greater than 32 µg/mL in the data set with Escherichia coli; 2 µg/mL with Staphylococcus aureus [7]; 2 µg/mL in the data set with Staphylococcus aureus [8]; greater than 32 µg/mL in the data set on Pseudomonas aeruginosa; 2 µg/mL in the data set with Staphylococcus aureus [9]. For the same compound, the MIC in the data set with Staphylococcus aureus [10], with Staphylococcus aureus [11] and in the data set with Staphylococcus aureus [12] was 2 µg/mL each time. Further, the Activity result with RAW264.7 and with L02 was “Toxic” throughout.

As to `CCC(C)Oc1cc(/C=C/c2ccc(C(F)(F)F)cc2)c(C(=O)O)c(O)c1CC=C(C)C` (stereo not given), the MIC in the data set with Staphylococcus aureus [1] was 2 µg/mL; in the data set with Staphylococcus aureus [2] it was 1 µg/mL; in the data set with Staphylococcus aureus [3], 2 µg/mL; in the data set on Staphylococcus aureus [4], 2 µg/mL; in the data set with Staphylococcus aureus [5], 2 µg/mL; with Staphylococcus aureus [6] it was 2 µg/mL. Moreover, the minimum inhibitory concentration (MIC) is greater than 32 µg/mL in the data set with Enterococcus faecalis; greater than 32 µg/mL in the data set with Escherichia coli; 2 µg/mL in the data set with Staphylococcus aureus [7]; 2 µg/mL with Staphylococcus aureus [8]; greater than 32 µg/mL in the data set with Pseudomonas aeruginosa; 2 µg/mL in the data set with Staphylococcus aureus [9]. Also, the MIC with Staphylococcus aureus [10], in the data set on Staphylococcus aureus [11] and with Staphylococcus aureus [12] was 2 µg/mL each time. For the same compound, the Activity result in the data set on RAW264.7 and with L02 was “Toxic” each time.

On to `CC(C)=CCc1c(OCc2ccccc2)cc(/C=C/c2ccc(C(F)(F)F)cc2)c(C(=O)O)c1O`, for which the MIC with Staphylococcus aureus [1] is 4 µg/mL; in the data set on Staphylococcus aureus [2], 2 µg/mL; in the data set with Staphylococcus aureus [3], 4 µg/mL; in the data set with Staphylococcus aureus [4], 2 µg/mL; in the data set with Staphylococcus aureus [5], 2 µg/mL; in the data set on Staphylococcus aureus [6], 4 µg/mL. For the same compound, the minimal inhibitory concentration (MIC) in the data set with Enterococcus faecalis was greater than 32 µg/mL; in the data set with Escherichia coli, greater than 32 µg/mL; with Staphylococcus aureus [7], 2 µg/mL; with Staphylococcus aureus [8], 2 µg/mL; in the data set with Pseudomonas aeruginosa, greater than 32 µg/mL; in the data set on Staphylococcus aureus [9] it was 4 µg/mL. The minimal inhibitory concentration (MIC) in the data set on Staphylococcus aureus [10], in the data set with Staphylococcus aureus [11] and in the data set with Staphylococcus aureus [12] was 4 µg/mL each time. Further, the Activity result in the data set on RAW264.7 and with L02 was “Toxic” throughout.

Values taken from ChEMBL document CHEMBL4828717, “Synthetic cajaninstilbene acid derivatives eradicate methicillin-resistant Staphylococcus aureus persisters and biofilms” (Eur J Med Chem, 2021).
